Experiments:
[1] = target: T1, PfUSP14 (PFE1355c, ubiquitin carboxyl-terminal hydrolase, putative) (Plasmodium falciparum, UniProt Q8I3J3); test: concentration-dependent inhibition of recombinant PfUSP14 deubiquitinase activity; type: biochemical
T1 construct: gene PF3D7_0527200; recombinant hexahistidyl-tagged PfUSP14
T1 sequence (Q8I3J3 1-605): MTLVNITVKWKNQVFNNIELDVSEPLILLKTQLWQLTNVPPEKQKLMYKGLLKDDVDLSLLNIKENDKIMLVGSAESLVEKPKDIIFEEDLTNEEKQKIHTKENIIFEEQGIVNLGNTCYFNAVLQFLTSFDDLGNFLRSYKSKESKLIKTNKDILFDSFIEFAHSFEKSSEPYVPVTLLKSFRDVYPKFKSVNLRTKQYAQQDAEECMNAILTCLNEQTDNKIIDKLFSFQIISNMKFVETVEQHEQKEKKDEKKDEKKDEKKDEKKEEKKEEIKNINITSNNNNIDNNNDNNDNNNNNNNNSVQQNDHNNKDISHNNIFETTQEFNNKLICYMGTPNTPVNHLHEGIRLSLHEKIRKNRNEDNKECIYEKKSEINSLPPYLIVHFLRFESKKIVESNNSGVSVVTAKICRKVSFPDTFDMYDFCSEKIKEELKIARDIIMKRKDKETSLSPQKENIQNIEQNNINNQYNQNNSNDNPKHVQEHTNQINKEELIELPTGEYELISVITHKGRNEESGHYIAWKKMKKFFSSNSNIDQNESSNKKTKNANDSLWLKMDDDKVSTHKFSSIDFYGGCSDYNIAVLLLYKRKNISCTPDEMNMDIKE

[2] = target: T2, P. falciparum 26S proteasome, β5 subunit (chymotrypsin-like activity) (Plasmodium falciparum, UniProt Q8IJT1); type: biochemical
T2 construct: gene PF3D7_1011400; with other 20S and 19S proteasome subunits
T2 sequence (Q8IJT1 61-271): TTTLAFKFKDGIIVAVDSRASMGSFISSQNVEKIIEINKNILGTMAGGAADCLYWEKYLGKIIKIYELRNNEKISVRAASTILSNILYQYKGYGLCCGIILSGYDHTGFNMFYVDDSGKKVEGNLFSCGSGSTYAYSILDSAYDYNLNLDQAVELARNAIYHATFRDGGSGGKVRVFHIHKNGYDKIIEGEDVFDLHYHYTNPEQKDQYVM
T2 sequence (A0A5K1K7U1 39-240 partner): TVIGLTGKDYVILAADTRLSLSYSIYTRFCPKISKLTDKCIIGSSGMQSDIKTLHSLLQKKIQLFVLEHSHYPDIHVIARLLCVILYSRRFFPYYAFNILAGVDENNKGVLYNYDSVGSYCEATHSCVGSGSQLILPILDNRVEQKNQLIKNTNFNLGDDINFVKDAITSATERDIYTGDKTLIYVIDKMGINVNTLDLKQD

Compound | IC50 [1] [µM] | fluorogenic peptide (Suc-LLVY-AMC) cleavage by purified proteasome, inhibitor at [2]
C=CC(=O)N1C/C(=C\c2ccc([N+](=O)[O-])cc2)C(=O)/C(=C/c2ccc([N+](=O)[O-])cc2)C1 [b-AP15] | 11.3 ± 4.7 | –
CC(=O)N[C@@H](CSC(=O)[C@]1([C@@H](O)C(C)C)NC(=O)[C@H](C)[C@@H]1O)C(=O)O [lactacystin] | – | the respective proteolytic activities were shown to be inhibited by the proteasome inhibitors MG132 and lactacystin
